Experimental data from ChEMBL document CHEMBL3774318, “Synthesis and antiproliferative activity of goniobutenolides A and B, 5-halogenated crassalactone D derivatives and the corresponding 7-epimers” (Eur J Med Chem, 2016).

Tests used:
[1] = Cytotoxicity against human HL60 cells assessed as cell growth inhibition after 72 hrs by MTT assay; type: functional, cell-based; settings: HL-60, 72 h
[2] = Cytotoxicity against human Jurkat T cells assessed as cell growth inhibition after 72 hrs by MTT assay; type: functional, cell-based

## COc1cccc2c1C(=O)c1c(O)c3c(c(O)c1C2=O)C[C@@](O)(C(=O)CO)C[C@@H]3O[C@H]1C[C@H](N)[C@H](O)[C@H](C)O1 [DOXORUBICIN]
[1]
  IC50: 920 nM
[2]
  IC50: 30 nM
